The text below walks through data of PubChem BioAssay AID264 (DTP/NCI, 2004).

The test concerns nude mice, LX-1 lung xenograft intrarenal, tumor weight T/C. Briefly: NCI In Vivo Anticancer Drug Screen. Data for tumor model Human Lung LX-1 Xenograft (intrarenal inoculation) in NU/NU Swiss (nude) mice. The note with it: endpoint: mean tumor weight change, higher = larger tumour. Put shortly: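 Activity was scored by measuring tumors in treated animals and in vehicle controls, then reporting the treated result as a fraction of the control result.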
In general terms: In xenograft studies the graft and the host belong to different species.

[1] abbreviates: dose: 75.0 mg/kg/injection, schedule: Q04DX003 (sc), vehicle: saline with Tween-80.
[2] abbreviates: dose: 150.0 mg/kg/injection, schedule: Q04DX003 (sc), vehicle: saline with Tween-80.
Where [3] appears, read: dose: 7.5 mg/kg/injection, schedule: Q04DX003 (sc), vehicle: Klucel (hydroxypropylcellulose) (HPC).
Setting [4] is: dose: 30.0 mg/kg/injection, schedule: Q04DX003 (sc), vehicle: Klucel (hydroxypropylcellulose) (HPC).
Setting [5] is: dose: 300.0 mg/kg/injection, schedule: Q04DX003 (sc), vehicle: saline with Tween-80.
Setting [6] is: dose: 600.0 mg/kg/injection, schedule: Q04DX003 (sc), vehicle: saline with Tween-80.
Where [7] appears, read: dose: 100.0 mg/kg/injection, schedule: Q01DX010 (sc), vehicle: saline with Tween-80.
Where [8] appears, read: dose: 200.0 mg/kg/injection, schedule: Q01DX010 (sc), vehicle: saline with Tween-80.
Setting [9] is: dose: 12.5 mg/kg/injection, schedule: Q01DX010 (sc), vehicle: Klucel (hydroxypropylcellulose) (HPC).
Where [10] appears, read: dose: 25.0 mg/kg/injection, schedule: Q01DX010 (sc), vehicle: Klucel (hydroxypropylcellulose) (HPC).
[11] abbreviates: dose: 100.0 mg/kg/injection, schedule: Q04DX003 (sc), vehicle: saline.
Setting [12] is: dose: 200.0 mg/kg/injection, schedule: Q04DX003 (sc), vehicle: saline.

Values joined by “and” are separate entries in the source; they are usually repeats but may differ in a detail not shown here. Identical values can stand only once. Inconclusive results are not listed.

Regarding `c1ccc2c(c1)-c1ccccc1C1NC21` (stereo not given), the T/C by setting is: (dose: 37.5 mg/kg/injection, schedule: Q04DX003 (sc), vehicle: saline with Tween-80) 82 % of control; under setting [1], 56 % of control; under setting [2], 45 % of control.

With `C(CSC1=NCCN1)CSC1=NCCN1`, the T/C was 156 % of control (dose: 50.0 mg/kg/injection, schedule: Q01DX010 (sc), vehicle: saline) and 81 % of control (dose: 100.0 mg/kg/injection, schedule: Q01DX010 (sc), vehicle: saline).

In the case of `COC1CC(CC2CCC(C)C(C(C)C(=O)O)O2)OC2(OC(C)(C3CCC(C)(C4OC(C5OC(O)(CO)C(C)CC5C)CC4C)O3)CC2C)C1C` (stereo not given), the T/C runs as follows: (dose: 3.75 mg/kg/injection, schedule: Q04DX003 (sc), vehicle: Klucel (hydroxypropylcellulose) (HPC)) 110 % of control; under setting [3], 102 % of control; under setting [4], 108 % of control.

`COc1cc2cc(c1Cl)N(C)C(=O)CC(OC(=O)C(C)C)C1(C)OC1C(C)C1CC(O)(NC(=O)O1)C(OC)/C=C/C=C(C)C2` (stereo not given): the T/C by setting is: (dose: 100.0 micrograms/kg/injection, schedule: Q01DX010 (sc), vehicle: saline + alcohol) 19 % of control and 39 % of control; (dose: 200.0 micrograms/kg/injection, schedule: Q01DX010 (sc), vehicle: saline + alcohol) 44 % of control.

As to `CC1(C)N=C(N)N=C(N)N1c1ccc(CCCCc2ccc(S(=O)(=O)F)cc2Cl)c(Cl)c1`, the T/C (dose: 12.5 mg/kg/injection, schedule: Q01DX010 (sc), vehicle: saline) is 78 % of control.

Turning to `C=C/C(C)=C/[C@H](C)C(=O)C[C@H](O)CC1CC(=O)NC(=O)C1`, the T/C runs as follows: under setting [1], 111 % of control; under setting [2], 61 % of control; under setting [5], 69 % of control; under setting [6], 70 % of control.

On to `CCNC(=O)OCc1c(COC(=O)NCC)c(-c2ccc(Cl)c(Cl)c2)n2c1CCC2`, for which the T/C is 26 % of control and 31 % of control under setting [7]; 95 % of control under setting [8].

Consider `c1cc[c]([Sn]([NH]c2ncnc3[nH]cnc23)([NH]c2ncnc3[nH]cnc23)[c]2ccccc2)cc1`, for which the T/C reads like this: (dose: 300.0 mg/kg/injection, schedule: Q04DX003 (sc), vehicle: suspension in saline) 85 % of control; (dose: 600.0 mg/kg/injection, schedule: Q04DX003 (sc), vehicle: suspension in saline) 84 % of control; (dose: 1200.0 mg/kg/injection, schedule: Q04DX003 (sc), vehicle: suspension in saline) 82 % of control; (dose: 2400.0 mg/kg/injection, schedule: Q04DX003 (sc), vehicle: suspension in saline) 64 % of control.

As for `C(C#CCN1CCOCC1)#CCN1CCOCC1`, the T/C reads like this: (dose: 300.0 mg/kg/injection, schedule: Q04DX003 (sc), vehicle: Klucel (hydroxypropylcellulose) (HPC)) 124 % of control; (dose: 600.0 mg/kg/injection, schedule: Q04DX003 (sc), vehicle: Klucel (hydroxypropylcellulose) (HPC)) 76 % of control; (dose: 1200.0 mg/kg/injection, schedule: Q04DX003 (sc), vehicle: Klucel (hydroxypropylcellulose) (HPC)) 84 % of control.

Consider `CC[C@]1(O)C[C@H]2CN(CCc3c([nH]c4ccccc34)[C@@](C(=O)OC)(c3cc4c(cc3OC)N(C=O)[C@H]3[C@@](O)(C(=O)OC)[C@H](OC(C)=O)[C@]5(CC)C=CCN6CC[C@]43[C@@H]65)C2)C1`, for which the T/C runs as follows: (dose: 0.13 mg/kg/injection, schedule: Q01DX010 (sc), vehicle: saline) 69 % of control; (dose: 0.25 mg/kg/injection, schedule: Q01DX010 (sc), vehicle: saline) 102 % of control; (dose: 0.5 mg/kg/injection, schedule: Q01DX010 (sc), vehicle: saline) 1 % of control.

Take `CC(C)(C)N1CC1CNC(=O)C(=O)NCC1CN1C(C)(C)C` (stereo not given): the T/C is 87 % of control (dose: 6.25 mg/kg/injection, schedule: Q04DX003 (sc), vehicle: saline with Tween-80); 76 % of control (dose: 12.5 mg/kg/injection, schedule: Q04DX003 (sc), vehicle: saline with Tween-80); 70 % of control (dose: 25.0 mg/kg/injection, schedule: Q04DX003 (sc), vehicle: saline with Tween-80).

For the compound `O=C(O)CCCc1ccc(N(CCCl)CCCl)cc1`, the T/C (dose: 16.0 mg/kg/injection, schedule: Q01DX010 (sc), vehicle: saline with Tween-80) was 30 % of control.

Regarding `O=C1CN(Cc2ccc3c(c2)OCO3)NO1`, the T/C reads like this: under setting [1], 63 % of control; under setting [2], 76 % of control; under setting [5], 63 % of control; under setting [6], 46 % of control.

For the compound `COc1cc(NS(C)(=O)=O)ccc1Nc1c2ccccc2nc2ccccc12`, the T/C was 151 % of control (dose: 0.47 mg/kg/injection, schedule: Q01DX010 (sc), vehicle: clinical formulation); 99 % of control (dose: 0.75 mg/kg/injection, schedule: Q01DX010 (sc), vehicle: other); 84 % of control (dose: 0.94 mg/kg/injection, schedule: Q01DX010 (sc), vehicle: lactic acid); 88 % of control (dose: 1.5 mg/kg/injection, schedule: Q01DX010 (sc), vehicle: other); 110 % of control (dose: 1.88 mg/kg/injection, schedule: Q01DX010 (sc), vehicle: clinical formulation); 109 % of control (dose: 1.88 mg/kg/injection, schedule: Q01DX010 (sc), vehicle: lactic acid). The T/C is, setting by setting: (dose: 3.0 mg/kg/injection, schedule: Q01DX010 (sc), vehicle: other) 64 % of control; (dose: 3.75 mg/kg/injection, schedule: Q01DX010 (sc), vehicle: lactic acid) 46 % of control.

On to `C1CCC2[N-]CC3CCCCC3[N-]CC3CCCCC3[N-]CC3CCCCC3[N-]CC2C1.[Cu]` (stereo not given), for which the T/C is 100 % of control (dose: 6.25 mg/kg/injection, schedule: Q01DX010 (sc), vehicle: Klucel (hydroxypropylcellulose) (HPC)); 87 % of control under setting [9]; 51 % of control under setting [10].

Consider `CCO/C=C1\SC(=S)N(c2ccccc2C)C1=O`, for which the T/C runs as follows: under setting [7], 26 % of control; under setting [8], 64 % of control; (dose: 400.0 mg/kg/injection, schedule: Q01DX010 (sc), vehicle: saline with Tween-80) 76 % of control; (dose: 800.0 mg/kg/injection, schedule: Q01DX010 (sc), vehicle: saline with Tween-80) 89 % of control.

In the case of `CCCCc1ccc(-n2c(C)c(COC(=O)NC)c(COC(=O)NC)c2C)cc1`, the T/C under setting [9] was 111 % of control; the T/C under setting [10] is 92 % of control; the T/C (dose: 50.0 mg/kg/injection, schedule: Q01DX010 (sc), vehicle: Klucel (hydroxypropylcellulose) (HPC)) is 100 % of control; the T/C (dose: 100.0 mg/kg/injection, schedule: Q01DX010 (sc), vehicle: Klucel (hydroxypropylcellulose) (HPC)) is 104 % of control.

As to `Nc1ccc2nc3ccc(N)cc3[n+](-c3ccccc3)c2c1`, the T/C reads like this: (dose: 36.0 mg/kg/injection, schedule: Q04DX003 (sc), vehicle: saline) 110 % of control; (dose: 72.0 mg/kg/injection, schedule: Q04DX003 (sc), vehicle: saline) 70 % of control.

For the compound `ClCCCN1CCCCC1CCl` (stereo not given), the T/C is 88 % of control (dose: 12.5 mg/kg/injection, schedule: Q04DX003 (sc), vehicle: saline) and 71 % of control (dose: 25.0 mg/kg/injection, schedule: Q04DX003 (sc), vehicle: saline).

As for `COc1ccc(C[C@H](N)C(=O)NC2C(CO)OC(n3cnc4c(N(C)C)ncnc43)C2O)cc1` (stereo not given in full), the T/C under setting [11] is 109 % of control and the T/C under setting [12] is 74 % of control.

As to `COc1ccc(S(=O)(=O)N=N/C=C2\C=CC=CN2O)cc1OC`, the T/C by setting is: under setting [1], 111 % of control; under setting [2], 124 % of control; under setting [6], 11 % of control.

With `CC(=O)[O][Pb]([O]C(C)=O)([c]1ccccc1)[c]1ccccc1`, where the note is “dose: 400.0 mg/kg/injection, schedule: Q01DX010 (sc), vehicle: Klucel (hydroxypropylcellulose) (HPC)”, the T/C is 40 % of control.

For `NC(=O)c1ccc[n+](Cc2c(Cl)cccc2Cl)c1`, the T/C runs as follows: (dose: 50.0 mg/kg/injection, schedule: Q04DX003 (sc), vehicle: saline) 115 % of control; under setting [11], 83 % of control; under setting [12], 90 % of control.

In the case of `C[C@]12CC[C@H]3[C@@H](CCC4=C[C@@H](OC5OCC(OC6OC(CO)C(O)C(O)C6O)C(O)C5O)CC[C@@]43C=O)[C@@]1(O)CCC2C1=CC(=O)OC1` (stereo not given in full), the T/C was 77 % of control under setting [3]; 79 % of control under setting [4]; 79 % of control (dose: 60.0 mg/kg/injection, schedule: Q04DX003 (sc), vehicle: Klucel (hydroxypropylcellulose) (HPC)).
